# Laboratory results: US8273724B2, “Melanoma antigens and their use in diagnostic and therapeutic methods” (The United States of America, as represented by the …, priority 1994, dated 2012)
# Where a SMILES comes first, the peptide text is derived from it.
# What was measured:
# [1] = system: 624mel melanoma cell line; test: Induction of peptide specific CTL from PBL, 51Cr release against melanoma cells (Example 5); type: cell-based, human; details: for % specific lysis by PBL stimulated with the peptide: target 624mel, E:T = 3D40:1; for recognition and lysis of original epitopes and melanoma tumor cells (624 mel) by PBL stimulated with the peptide, compared with natural epitopes: PBL stimulated with autologous PBMC pulsed with peptide
# Method: (§1) Induction of peptide specific CTL PBMC were separated from peripheral blood of HLA-A2+ melanoma patients and normal donors by centrifugation on Ficoll-Hypaque gradients and used as fresh or cryopreserved samples. […] Two days later, 12 IU/ml interleukin 2 (IL-2) (Chiron Co., Emeryville, Calif.) were added to the cultures. Lymphocytes were then restimulated weekly as follows: responder cells were harvested, washed once and replated in 24-well plates at a concentration of 2.5×10^5 cells/ml in CM. Autologous PBMC were thawed, washed twice in PBS, resuspended at 5-8×10^6 cells/ml in CM and pulsed with 1 ug/ml peptide in 15-ml conical tubes (5 ml/tube) for 3 hours at 37° C. These PBMC (stimulators) were then irradiated at 3000 rads, washed once in PBS and added to the responder cells at responder:stimulator ratios ranging between 1:3 and 1:10. The next day, 12 IU/ml IL-2 were added to the cultures. The activity of these CTL was tested by cytotoxicity assays after at least 2 rounds (14 days) of peptide stimulation. To generate CTL from TIL cultures, the dissociated tumor suspension were cultured for 1-2 days in 10% FCS RPMI-1640 medium to allow tumor cell adherence. The lymphocytes, recovered from the non-adherent fraction, were used for the induction of peptide specific CTL as described above.
# (§2) Assessment of antigen recognition by CTL. ^51Cr release cytotoxic assays were performed to detect the recognition of peptide and melanoma cells by CTL. To analyze peptide recognition, T2 cell lines were preincubated for 2 h at 37° C. with 1 ug/ml peptide, washed and used as target cells in a ^51Cr release cytotoxic assay. The melanoma lines 624mel was established in our laboratory (See Example 1).
# T2 cells = test: Induction of peptide specific CTL from PBL, 51Cr release against T2 cells with or without peptide (Example 5); type: cell-based, human; details: E:T = 3D40:1
# Method: as §1, §2
# [2] = system: T2 cell lines preincubated with peptide; test: Recognition of modified peptides by natural epitope (M9-2, G9-154, G9-209, G9-280) reactive T-cells, 51Cr release on peptide-pulsed T2 cells (Example 5); type: cell-based, human
# Method: as §2
# In order to make more immunogenic peptides for induction of anti-melanoma T-cells than natural melanoma epitopes, a variety of peptides in which at least 1 amino acid was changed based on consensus motifs in peptides binding to a specific MHC Class I allele Falk, et al. (1991) Nature 351:290; Kubo et al. (1994) J. Immunol 152:3913; Parker, K. et al. (1992) Journal of Immunology 149:3580; Ruppert, J. et al. (1993) Cell 74:929-937) (Tables 14, 15, 16, and 17). […] By changing amino acid at the 1st, 2nd, 3rd or 9th positions which are important for HLA-A2 binding to the peptide, but less important for recognition by T-cell receptors, artificial peptides which can bind to HLA-A2.1 with higher affinity and still be recognized by natural epitope specific T-cells may be generated.
# HLA-A2.1 = HLA-A2.1 (Homo sapiens, UniProt P04439, D140Y/D185E/D98H/E176V/E277Q/G131W/G231S/I119V/I121R/I166T/I218V/L300P/L318F/N151K/N90K/P208A/P217A/Q86G/Q94H/R138H/R169H/T345S); test: HLA-A2.1 binding assay of modified peptides, inhibition of radiolabeled Hbc 18-27 (Example 5); details: for IC50: modified gp100 G9-154 peptides, read-out: Binding affinity to HLA-A2.1
# HLA-A2.1+ T2 cell line = test: 51Cr release cytotoxicity assay: TIL lysis of T2 cells preincubated with synthetic MART-1 peptides (Example 2); type: cell-based, human
structure (smiles),measurement,setting,value
CC(C)[C@H](NC(=O)[C@H](CCC(N)=O)NC(=O)[C@H](Cc1c[nH]c2ccccc12)NC(=O)[C@H](Cc1ccc(O)cc1)NC(=O)[C@H](CCC(N)=O)NC(=O)CNC(=O)[C@H](Cc1c[nH]c2ccccc12)NC(=O)[C@@H](NC(=O)[C@@H](N)CCCCN)[C@@H](C)O)C(=O)O [G9154],% specific lysis by PBL stimulated with the peptide,[1]; after 4 stimulations (Table 18),5%
same,% specific lysis by PBL stimulated with the peptide,"T2 cells; target T2 + G9-154-2I, after 4 stimulations",8%
same,% specific lysis by PBL stimulated with the peptide,"T2 cells; target T2 + G9-154, after 4 stimulations",14%
same,% specific lysis by PBL stimulated with the peptide,"T2 cells; target T2, after 4 stimulations (Table 18)",11%
same,Recognition by G9-154 reactive T-cell,[2],"+ (+, recognized)"
CC(C)C[C@H](NC(=O)[C@@H](N)Cc1ccccc1)C(=O)N[C@@H](CC(=O)O)C(=O)N[C@@H](CCC(N)=O)C(=O)N[C@H](C(=O)N1CCC[C@H]1C(=O)N[C@@H](Cc1ccccc1)C(=O)N[C@@H](CO)C(=O)N[C@H](C(=O)O)C(C)C)C(C)C [G9-209-1F2L],"recognition and lysis of original epitopes and melanoma tumor cells (624 mel) by PBL stimulated with the peptide, compared with natural epitopes",[1],better
same,% specific lysis by PBL stimulated with the peptide,[1]; after 4 stimulations (Table 19),63%
same,binding affinity to HLA-A2.1 compared with the natural epitope,HLA-A2.1,higher binding affinity
same,% specific lysis by PBL stimulated with the peptide,"T2 cells; target T2 + G9-209-1F2L, after 4 stimulations",86%
same,% specific lysis by PBL stimulated with the peptide,"T2 cells; target T2 + G9-209, after 4 stimulations",85%
same,% specific lysis by PBL stimulated with the peptide,"T2 cells; target T2, after 4 stimulations (Table 19)",0%
same,Recognition by G9-209 reactive T-cell,[2],"+ (+, recognized)"
same,recognition by the original melanoma reactive T-cells,[2],recognized
CC[C@H](C)[C@H](NC(=O)CN)C(=O)NCC(=O)N[C@H](C(=O)N[C@@H](CC(C)C)C(=O)N[C@H](C(=O)N[C@H](C(=O)N[C@H](C(=O)N[C@@H](CC(C)C)C(=O)O)[C@@H](C)CC)C(C)C)[C@@H](C)O)[C@@H](C)CC [M9-3] (H-GIGILTVIL-OH),% specific lysis,"HLA-A2.1+ T2 cell line; T2 + peptide 10 ug/ml, effector TIL 660, E:T 40:1, 4 h",0%
same,% specific lysis,"HLA-A2.1+ T2 cell line; T2 + peptide 10 ug/ml, effector TIL 1074, E:T 40:1, 4 h",10%
same,% specific lysis,"HLA-A2.1+ T2 cell line; T2 + peptide 10 ug/ml, effector TIL 1235, E:T 40:1, 4 h",20%
same,% specific lysis,"HLA-A2.1+ T2 cell line; T2 + peptide 10 ug/ml, effector TIL clone A42, E:T 20:1, 4 h",18%
same,% specific lysis,"HLA-A2.1+ T2 cell line; purified peptide 1 ug/ml, TIL 501, E:T 40:1",5%
same,% specific lysis,"HLA-A2.1+ T2 cell line; purified peptide 1 ug/ml, TIL 620, E:T 40:1",25%
same,% specific lysis,"HLA-A2.1+ T2 cell line; purified peptide 1 ug/ml, TIL 660, E:T 40:1",0%
same,% specific lysis,"HLA-A2.1+ T2 cell line; purified peptide 1 ug/ml, TIL 1074, E:T 40:1",1%
same,% specific lysis,"HLA-A2.1+ T2 cell line; purified peptide 1 ug/ml, TIL 1088, E:T 40:1",19%
same,% specific lysis,"HLA-A2.1+ T2 cell line; purified peptide 1 ug/ml, TIL 1128, E:T 40:1",0%
same,% specific lysis,"HLA-A2.1+ T2 cell line; purified peptide 1 ug/ml, TIL 1143, E:T 40:1",1%
same,% specific lysis,"HLA-A2.1+ T2 cell line; purified peptide 1 ug/ml, TIL 1200, E:T 40:1",−2%
same,% specific lysis,"HLA-A2.1+ T2 cell line; purified peptide 1 ug/ml, TIL 1235, E:T 40:1",0%
same,% specific lysis,"HLA-A2.1+ T2 cell line; purified peptide 1 ug/ml, TIL 1363, E:T 40:1",−2%
same,% specific lysis,"HLA-A2.1+ T2 cell line; purified peptide 1 ug/ml, clone A42, E:T 20:1",−4%
same,recognition by either A42 or TIL1235,"HLA-A2.1+ T2 cell line; purified peptides, titration (FIG. 2)",not recognized
CC(C)C[C@H](NC(=O)[C@@H](N)Cc1ccc(O)cc1)C(=O)N[C@@H](CCC(=O)O)C(=O)N1CCC[C@H]1C(=O)NCC(=O)N1CCC[C@H]1C(=O)N[C@H](C(=O)N[C@H](C(=O)O)[C@@H](C)O)C(C)C [G9-280-9V] (H-YLEPGPVT-OH; N-terminus and C-terminus assumed),"recognition and lysis of original epitopes and melanoma tumor cells (624 mel) by PBL stimulated with the peptide, compared with natural epitopes",[1],better
same,% specific lysis by PBL stimulated with the peptide,[1]; after 4 stimulations (Table 20),71%
same,binding affinity to HLA-A2.1 compared with the natural epitope,HLA-A2.1,higher binding affinity
same,% specific lysis by PBL stimulated with the peptide,"T2 cells; target T2 + G9-280-9V, after 4 stimulations",58%
same,% specific lysis by PBL stimulated with the peptide,"T2 cells; target T2 + G9-280, after 4 stimulations",87%
same,% specific lysis by PBL stimulated with the peptide,"T2 cells; target T2, after 4 stimulations (Table 20)",0%
same,recognition by the original melanoma reactive T-cells,[2],recognized
same,Recognition by G9-280 reactive T-cell,"[2]; 51Cr release, T2 cells preincubated with 1 ug/ml peptide","+ (+, recognized)"
CC[C@H](C)[C@H](N)C(=O)N[C@@H](CCSC)C(=O)N[C@@H](CC(=O)O)C(=O)N[C@@H](CCC(N)=O)C(=O)N[C@H](C(=O)N1CCC[C@H]1C(=O)N[C@@H](Cc1ccccc1)C(=O)N[C@@H](CO)C(=O)N[C@H](C(=O)O)C(C)C)C(C)C [G9-209-2M],binding affinity to HLA-A2.1 compared with the natural epitope,HLA-A2.1,higher binding affinity
same,Recognition by G9-209 reactive T-cell,[2],"+ (+, recognized)"
same,recognition by the original melanoma reactive T-cells,[2],recognized
CC(C)C[C@H](NC(=O)[C@@H](N)Cc1c[nH]c2ccccc12)C(=O)N[C@@H](Cc1c[nH]c2ccccc12)C(=O)NCC(=O)N[C@@H](CCC(N)=O)C(=O)N[C@@H](Cc1ccc(O)cc1)C(=O)N[C@@H](Cc1c[nH]c2ccccc12)C(=O)N[C@@H](CCC(N)=O)C(=O)N[C@H](C(=O)O)C(C)C [G9-154-1W2L] (H-WLWGQYWQV-OH; N-terminus and C-terminus assumed),IC50,HLA-A2.1,2.8 nM
same,Recognition by G9-154 reactive T-cell,[2],−
CC(C)[C@H](NC(=O)[C@H](CCC(N)=O)NC(=O)[C@H](Cc1c[nH]c2ccccc12)NC(=O)[C@H](Cc1ccc(O)cc1)NC(=O)[C@H](CCC(N)=O)NC(=O)CNC(=O)[C@H](Cc1ccccc1)NC(=O)[C@@H](NC(=O)[C@@H](N)CCCCN)[C@@H](C)O)C(=O)O [G9-154-3F] (H-KTFGQYWQV-OH; N-terminus and C-terminus assumed),IC50,HLA-A2.1,21 nM
same,Recognition by G9-154 reactive T-cell,[2],"+ (+, recognized)"
CC(C)C[C@H](NC(=O)[C@@H](N)Cc1ccccc1)C(=O)N[C@@H](Cc1c[nH]c2ccccc12)C(=O)NCC(=O)N[C@@H](CCC(N)=O)C(=O)N[C@@H](Cc1ccc(O)cc1)C(=O)N[C@@H](Cc1c[nH]c2ccccc12)C(=O)N[C@@H](CCC(N)=O)C(=O)N[C@H](C(=O)O)C(C)C [G9-154-1F2L] (H-FLWGQYWQV-OH; N-terminus and C-terminus assumed),IC50,HLA-A2.1,2.6 nM
same,Recognition by G9-154 reactive T-cell,[2],−
CC(C)[C@H](NC(=O)[C@H](CO)NC(=O)[C@H](Cc1ccccc1)NC(=O)[C@@H]1CCCN1C(=O)[C@@H](NC(=O)[C@H](CCC(N)=O)NC(=O)[C@H](CC(=O)O)NC(=O)[C@@H](NC(=O)[C@@H](N)Cc1ccc(O)cc1)[C@@H](C)O)C(C)C)C(=O)O [G9-209-1Y],binding affinity to HLA-A2.1 compared with the natural epitope,HLA-A2.1,higher binding affinity
same,Recognition by G9-209 reactive T-cell,[2],"+ (+, recognized)"
same,recognition by the original melanoma reactive T-cells,[2],recognized
CSCC[C@H](NC(=O)[C@@H](N)CCCCN)C(=O)N[C@@H](Cc1c[nH]c2ccccc12)C(=O)NCC(=O)N[C@@H](CCC(N)=O)C(=O)N[C@@H](Cc1ccc(O)cc1)C(=O)N[C@@H](Cc1c[nH]c2ccccc12)C(=O)N[C@@H](CCC(N)=O)C(=O)N[C@H](C(=O)O)C(C)C [G9-154-2M] (H-KMWGQYWQV-OH; N-terminus and C-terminus assumed),IC50,HLA-A2.1,6.5 nM
same,Recognition by G9-154 reactive T-cell,[2],"+ (+, recognized)"
CC[C@H](C)[C@H](NC(=O)CNC(=O)[C@H](CC(C)C)NC(=O)[C@H](C)N)C(=O)NCC(=O)N[C@H](C(=O)N[C@@H](CC(C)C)C(=O)N[C@H](C(=O)N[C@H](C(=O)O)C(C)C)[C@@H](C)O)[C@@H](C)CC [M9-2-2L],binding affinity to HLA-A2.1 compared with the natural epitope,HLA-A2.1,higher binding affinity
same,Recognition by M9-2 reactive T-cell,[2],"+ (+, recognized)"
same,recognition by the original melanoma reactive T-cells,[2],recognized
CC(C)[C@H](NC(=O)[C@H](CCC(N)=O)NC(=O)[C@H](Cc1c[nH]c2ccccc12)NC(=O)[C@H](Cc1ccc(O)cc1)NC(=O)[C@H](CCC(N)=O)NC(=O)CNC(=O)[C@H](Cc1c[nH]c2ccccc12)NC(=O)[C@@H](NC(=O)[C@@H](N)Cc1ccc(O)cc1)[C@@H](C)O)C(=O)O [G9-154-1Y],IC50,HLA-A2.1,2.5 nM
same,Recognition by G9-154 reactive T-cell,[2],−
